Legend:
[1] = Determination of pKa of formulated lipids in lipid nanoparticles (TNS fluorescence assay); format: physicochemical; settings: pKa of cationic lipid in LNP (cationic lipid/DSPC/cholesterol/PEG-lipid 50/10/38.5/1.5 mol %), pH of half-maximal intensity
Description: As described elsewhere, the pKa of formulated cationic lipids is correlated with the effectiveness of LNPs for delivery of nucleic acids (see Jayaraman et al, Angewandte Chemie, International Edition (2012), 51(34), 8529-8533; Semple et al, Nature Biotechnology 28, 172-176 (2010)). The preferred range of pKa is ˜5 to ˜7. […] Lipid nanoparticles comprising of cationic lipid/DSPC/cholesterol/PEG-lipid (50/10/38.5/1.5 mol %) in PBS at a concentration of 0.4 mM total lipid are prepared using the in-line process as described in Example 1. TNS was prepared as a 100 μM stock solution in distilled water. Vesicles were diluted to 24 μM lipid in 2 mL of buffered solutions containing, 10 mM HEPES, 10 mM MES, 10 mM ammonium acetate, 130 mM NaCl, where the pH ranged from 2.5 to 11. An aliquot of the TNS solution was added to give a final concentration of 1 μM and following vortex mixing fluorescence intensity was measured at room temperature in a SLM Aminco Series 2 Luminescence Spectrophotometer using excitation and emission wavelengths of 321 nm and 445 nm. A sigmoidal best fit analysis was applied to the fluorescence data and the pKa was measured as the pH giving rise to half-maximal fluorescence intensity (see FIG. 2).

[2] = test system: luciferase expression in the liver; experiment: Luciferase mRNA in vivo evaluation: luciferase expression in the liver after tail vein injection of FLuc mRNA lipid nanoparticles; design: species or system mice; settings: liver 4 hours after administration; for Liver Luc @ 0.3 mg/kg (ng luc/g liver): 0.3 mg mRNA/kg; for Liver Luc @ 1.0 mg/kg (ng luc/g liver): 1.0 mg mRNA/kg
Description: Cationic lipid, DSPC, cholesterol and PEG-lipid were solubilized in ethanol at a molar ratio of 50:10:38.5:1.5 or 47.5:10:40.8:1.7. Lipid nanoparticles (LNP) were prepared at a total lipid to mRNA weight ratio of approximately 10:1 to 30:1. Briefly, the mRNA was diluted to 0.2 mg/mL in 10 to 50 mM citrate buffer, pH 4. Syringe pumps were used to mix the ethanolic lipid solution with the mRNA aqueous solution at a ratio of about 1:5 to 1:3 (vol/vol) with total flow rates above 15 ml/min. The ethanol was then removed and the external buffer replaced with PBS by dialysis. Finally, the lipid nanoparticles were filtered through a 0.2 μm pore sterile filter. Lipid nanoparticle particle size was approximately 55-95 nm diameter, and in some instances approximately 70-90 nm diameter as determined by quasi-elastic light scattering using a Malvern Zetasizer Nano ZS (Malvern, UK).
Studies were performed in 6-8 week old female C57BL/6 mice (Charles River) 8-10 week old CD-1 (Harlan) mice (Charles River) according to guidelines established by an institutional animal care committee (ACC) and the Canadian Council on Animal Care (CCAC). Varying doses of mRNA-lipid nanoparticle were systemically administered by tail vein injection and animals euthanized at a specific time point (e.g 4 hrs) post-administration. Liver and spleen were collected in pre-weighed tubes, weights determined, immediately snap frozen in liquid nitrogen and stored at −80° C. until processing for analysis.
For liver, approximately 50 mg was dissected for analyses in a 2 mL FastPrep tubes (MP Biomedicals, Solon Ohio). ¼″ ceramic sphere (MP Biomedicals) was added to each tube and 500 μL of Glo Lysis Buffer—GLB (Promega, Madison Wis.) equilibrated to room temperature was added to liver tissue. Liver tissues were homogenized with the FastPrep24 instrument (MP Biomedicals) at 2×6.0 m/s for 15 seconds. Homogenate was incubated at room temperature for 5 minutes prior to a 1:4 dilution in GLB and assessed using SteadyGlo Luciferase assay system (Promega). Specifically, 50 μL of diluted tissue homogenate was reacted with 50 μL of SteadyGlo substrate, shaken for 10 seconds followed by 5 minute incubation and then quantitated using a CentroXS^3 LB 960 luminometer (Berthold Technologies, Germany). The amount of protein assayed was determined by using the BCA protein assay kit (Pierce, Rockford Ill.). Relative luminescence units (RLU) were then normalized to total ug protein assayed. To convert RLU to ng luciferase a standard curve was generated with QuantiLum Recombinant Luciferase (Promega). Based in the data provided in FIG. 1, the four-hour time point was chosen for efficacy evaluation of the lipid formulations.
The FLuc mRNA (L-6107) from Trilink Biotechnologies will express a luciferase protein, originally isolated from the firefly, Photinus pyralis. FLuc is commonly used in mammalian cell culture to measure both gene expression and cell viability. It emits bioluminescence in the presence of the substrate, luciferin. This capped and polyadenylated mRNA is fully substituted with 5-methylcytidine and pseudouridine.
The cationic lipids shown in Table 2 have previously been tested with nucleic acids. For comparative purposes, these lipids were also used to formulate lipid nanoparticles containing the FLuc mRNA (L-6107) using an in line mixing method, as described in Example 1 and in PCT/US10/22614, which is hereby incorporated by reference in its entirety. […]

[3] = Lipid Ratio A: 50% cationic lipid/10% DSPC/38.5% cholesterol/1.5% PEG lipid (PEG-DMA)
[4] = Lipid Ratio B: 47.5% cationic lipid/10% DSPC/40.8% cholesterol/1.7% PEG lipid

pKa [1]	SMILES	Liver Luc @ 0.3 mg/kg (ng luc/g liver) [2, 3] [ng luc/g liver]	Liver Luc @ 1.0 mg/kg (ng luc/g liver) [2, 3] [ng luc/g liver]	Liver Luc @ 0.3 mg/kg (ng luc/g liver) [2, 4] [ng luc/g liver]	Liver Luc @ 1.0 mg/kg (ng luc/g liver) [2, 4] [ng luc/g liver]
5.84	CCCCCCCCCCC(CCCCCCCC)C(=O)OCCCCCCN(CCCCO)CCCCCCOC(=O)C(CCCCCCCC)CCCCCCCCCC (stereo not drawn) [Compound 26]	1143 ± 782	1238 ± 1686	–	–
5.77	CCCCCCCCCCCCC(CCCCCCCCCC)C(=O)OCCCCCCN(CCCCO)CCCCCCOC(=O)C(CCCCCCCCCC)CCCCCCCCCCCC (stereo not drawn) [Compound 27]	110 ± 42	1088 ± 802	–	–
6.09	CCCCCCCCC(CCCCCC)C(=O)OCCCCCCN(CCCCCCOC(=O)C(CCCCCC)CCCCCCCC)CC(O)CO (stereo not drawn) [Compound 30]	49 ± 17	237 ± 92	–	–
5.89	CCCCCCCCCCC(CCCCCCCC)C(=O)OCCCCCCN(CCCO)CCCCCCOC(=O)C(CCCCCCCC)CCCCCCCCCC (stereo not drawn) [Compound 37]	1244 ± 907	2035 ± 498	–	–
6.1	CCCCCCCCC(CCCCCC)C(=O)OCCCCCCCCCCCCN(CCCO)CCCCCCCCCCCCOC(=O)C(CCCCCC)CCCCCCCC (stereo not drawn) [Compound 38]	60 ± 5	365 ± 181	–	–
5.79	CCCCCCCCCCCCC(CCCCCCCCCC)C(=O)OCCCCCCN(CCCO)CCCCCCOC(=O)C(CCCCCCCCCC)CCCCCCCCCCCC (stereo not drawn) [Compound 44]	–	–	23 ± 11	342 ± 229
6.25	CCCCCCC(CCCC)C(=O)OCCCCCCCCCN(CCCO)CCCCCCCCCOC(=O)C(CCCC)CCCCCC (stereo not drawn) [Compound 45]	–	–	1026 ± 199	8806 ± 2836
6.06	CCCCCCCCC(CCCCCC)COC(=O)CCCCCCCN(CCO)CCCCCCCC(=O)OCC(CCCCCC)CCCCCCCC (stereo not drawn) [Compound 46]	–	–	4 ± 2	5 ± 3

Second part, the molecule before the results:

SMILES	pKa [1]	Liver Luc @ 0.3 mg/kg (ng luc/g liver) [2, 3] [ng luc/g liver]	Liver Luc @ 1.0 mg/kg (ng luc/g liver) [2, 3] [ng luc/g liver]	Liver Luc @ 0.3 mg/kg (ng luc/g liver) [2, 4] [ng luc/g liver]	Liver Luc @ 1.0 mg/kg (ng luc/g liver) [2, 4] [ng luc/g liver]
CCCCCCCCC(CCCCCC)C(=O)OCCCCCCN(CCO)CCCCCCOC(=O)C(CCCCCC)CCCCCCCC (stereo not drawn) [Compound 1]	5.89	467 ± 72	3780 ± 210	–	–
CCCCCCCCC(CCCCCC)C(=O)OCCCCCCN(CCCO)CCCCCCOC(=O)C(CCCCCC)CCCCCCCC (stereo not drawn) [Compound 2]	6.05	1195 ± 245	10059 ± 3833	–	–
CCCCCCCCC(CCCCCC)C(=O)OCCCCCCN(CCCCO)CCCCCCOC(=O)C(CCCCCC)CCCCCCCC (stereo not drawn) [Compound 3]	6.09	1275 ± 410	10643 ± 1858	–	–
CCCCCCCCC(CCCCCC)C(=O)OCCCCN(CCCCO)CCCCOC(=O)C(CCCCCC)CCCCCCCC (stereo not drawn) [Compound 4]	5.6	378 ± 82	1952 ± 940	–	–
CCCCCCCCC(CCCCCC)C(=O)OCCCCN(CCCO)CCCCOC(=O)C(CCCCCC)CCCCCCCC (stereo not drawn) [Compound 5]	5.59	183 ± 45	713 ± 298	–	–
CCCCCCCCC(CCCCCC)C(=O)OCCCCN(CCO)CCCCOC(=O)C(CCCCCC)CCCCCCCC (stereo not drawn) [Compound 6]	5.42	122 ± 49	520 ± 365	–	–
CCCCCCCCC(CCCCCC)C(=O)OCCCCCCN(CCCCCO)CCCCCCOC(=O)C(CCCCCC)CCCCCCCC (stereo not drawn) [Compound 7]	6.11	1158 ± 136	8406 ± 2335	–	–
CCCCCCCCC(CCCCCC)C(=O)OCCCCCCN(CCCCCCO)CCCCCCOC(=O)C(CCCCCC)CCCCCCCC (stereo not drawn) [Compound 8]	5.84	1467 ± 943	7230 ± 2290	–	–
CCCCCCCCC(CCCCCC)COC(=O)CCCCN(CCCCO)CCCCC(=O)OCC(CCCCCC)CCCCCCCC (stereo not drawn) [Compound 15]	6.14	247 ± 25	1633 ± 449	–	–
CCCCCCCCC(CCCCCC)COC(=O)CCCCCN(CCCO)CCCCCC(=O)OCC(CCCCCC)CCCCCCCC (stereo not drawn) [Compound 16]	6.31	344 ± 133	2633 ± 1140	–	–
CCCCCCCCC(CCCCCC)COC(=O)CCCCCN(CCCCO)CCCCCC(=O)OCC(CCCCCC)CCCCCCCC (stereo not drawn) [Compound 17]	6.28	275 ± 139	1554 ± 761	–	–
CCCCCCCCC(CCCCCC)COC(=O)CCCCCCCN(CCCCO)CCCCCCCC(=O)OCC(CCCCCC)CCCCCCCC (stereo not drawn) [Compound 20]	6.36	–	–	691 ± 150	4279 ± 2226
CCCCCCCCC(CCCCCC)C(=O)OCCCCCCCCCN(CCCCO)CCCCCCCCCOC(=O)C(CCCCCC)CCCCCCCC (stereo not drawn) [Compound 22]	6.1	660 ± 184	7533 ± 4499	–	–
CCCCCCCCC(CCCCCC)C(=O)OCCCCCCCCCCCCN(CCCCO)CCCCCCCCCCCCOC(=O)C(CCCCCC)CCCCCCCC (stereo not drawn) [Compound 23]	5.98	137 ± 51	487 ± 209	–	–
CCCCCCC(CCCC)C(=O)OCCCCCCCCCN(CCCCO)CCCCCCCCCOC(=O)C(CCCC)CCCCCC (stereo not drawn) [Compound 25]	6.22	1648 ± 534	13880 ± 5083	–	–

— US11040112B2, “Lipids and lipid nanoparticle formulations for delivery of nucleic acids” (Acuitas Therapeutics, Inc., priority 2015, dated 2021)
